This is an account of results in patent publication US20160158200A1, “Combinations of Hepatitis C Virus Inhibitors” (priority 2013, published 2016).

For the experiment, the system named is HCV genotype-1a variant with glutamine 30 changed to glutamate in the NS5A protein. Type of experiment: cell-based. Particulars: test compound titrated with BMS-790052 fixed at 200 nM; genotype 1a Q30E replicon. In short, it runs like this:
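Synergy was assessed by combining several fixed amounts of an NS5A-targeting compound with a titration of the second compound of interest.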

Some results are limits rather than exact numbers.

As for `O=C(c1ccc(-c2ccccc2)cc1)N1CCC[C@H]1c1ncc(-c2ccc(-c3ccc(-c4cnc([C@@H]5CCCN5C(=O)c5ccc(-c6ccccc6)cc5)[nH]4)cc3)cc2)[nH]1` [Compound S-117], the “Fold-Synergistic 1a (Q30E)” value was more than 10 fold. Regarding `CC(C)[C@H](NC(=O)[C@@]1(C)CCC(F)(F)CO1)c1nc(-c2ccc(-c3ccc(-c4c[nH]c([C@@H](NC(=O)[C@@]5(C)CCC(F)(F)CO5)C(C)C)n4)cn3)cc2)c[nH]1` [Compound N-134], the “Fold-Synergistic 1a (Q30E)” value is listed as more than 100 fold. Under `CC1CN(C(=O)C(=O)N[C@H](c2nc(-c3ccc(-c4ccc(-c5c[nH]c([C@@H](NC(=O)C(=O)N6CC(C)OC(C)C6)C(C)(C)C)n5)cc4)cc3)c[nH]2)C(C)(C)C)CC(C)O1` (single isomer, unassigned) [Compound W-40B] stands more than 100 fold. On to `COCC(NC(=O)C(C)(C)C)c1nc(-c2ccc(-c3ccc(-c4c[nH]c(C(COC)NC(=O)C(C)(C)C)n4)cc3)cc2)c[nH]1` [Compound L-105], for which the “Fold-Synergistic 1a (Q30E)” value is on record as more than 100 fold. For the compound `CC(C)[C@H](NC(=O)N(C(C)C)C(C)C)c1nc(-c2ccc(-c3ccc(-c4c[nH]c([C@@H](NC(=O)N(C(C)C)C(C)C)C(C)C)n4)cc3)cc2)c[nH]1` [Compound S-230], the “Fold-Synergistic 1a (Q30E)” value is given as more than 100 fold. Turning to `CC(C)OC(C)(C)C(=O)N[C@H](c1ncc(-c2ccc(-c3ccc(-c4cnc([C@@H](NC(=O)C(C)(C)OC(C)C)C(C)C)[nH]4)cc3)cc2)[nH]1)C(C)C` [Compound Y-29], the “Fold-Synergistic 1a (Q30E)” value is on record as more than 100 fold. As for `CC1(C)C2CCC(C(=O)N[C@H](c3nc(-c4ccc(-c5ccc(-c6c[nH]c([C@@H](NC(=O)C78CCC(C7)C(C)(C)C8O)C(C)(C)C)n6)cc5)cc4)c[nH]3)C(C)(C)C)(C2)C1O` (single isomer, unassigned) [Compound Y-107], the “Fold-Synergistic 1a (Q30E)” value was more than 100 fold.

As to `CC(C)(C)C(NC(=O)C1(C)CC1(F)F)c1nc(-c2ccc(-c3ccc(-c4c[nH]c(C(NC(=O)C5(C)CC5(F)F)C(C)(C)C)n4)cc3)cc2)c[nH]1` (single isomer, unassigned) [Compound L-58b], the “Fold-Synergistic 1a (Q30E)” value is given as more than 100 fold. Consider `CC1(C)CCN(C(=O)C(=O)N2CCC(F)(F)CC2)C1c1nc(-c2ccc(-c3ccc(-c4c[nH]c(C5N(C(=O)C(=O)N6CCC(F)(F)CC6)CCC5(C)C)n4)cc3)cc2)c[nH]1` (centres unmarked) [Compound W-222], for which the “Fold-Synergistic 1a (Q30E)” value is listed as more than 100 fold. Under `CC(C)(C)C(NC(=O)C1CCCN1CC(F)(F)F)c1nc(-c2ccc(-c3ccc(-c4c[nH]c(C(NC(=O)C5CCCN5CC(F)(F)F)C(C)(C)C)n4)cc3)cc2)c[nH]1` [Compound L-52] stands more than 100 fold; under `CC(C)(C)[C@H](NC(=O)C12CCC(CC1)C2)c1nc(-c2ccc(-c3ccc(-c4c[nH]c([C@@H](NC(=O)C56CCC(CC5)C6)C(C)(C)C)n4)cc3)cc2)c[nH]1` [Compound S-261], more than 100 fold; under `CC(C)(C)[C@H](NC(=O)[C@@]1(C)CC(F)(F)CO1)c1nc(-c2ccc(-c3ccc(-c4c[nH]c([C@@H](NC(=O)[C@@]5(C)CC(F)(F)CO5)C(C)(C)C)n4)cc3)cc2)c[nH]1` [Compound Y-77], more than 100 fold. Turning to `CN(C)S(=O)(=O)N[C@H](c1nc(-c2ccc(-c3ccc(-c4c[nH]c([C@@H](NS(=O)(=O)N(C)C)C(C)(C)C)n4)cc3)cc2)c[nH]1)C(C)(C)C` [Compound L-116], the “Fold-Synergistic 1a (Q30E)” value is more than 100 fold. Under `CC1(C(=O)N[C@H](c2ncc(-c3ccc(-c4ccc(-c5cnc([C@@H](NC(=O)C6(C)CCCCC6O)C(C)(C)C)[nH]5)cc4)cc3)[nH]2)C(C)(C)C)CCCCC1O` (some centres unmarked) [Compound Y-97] stands more than 100 fold. With `CC1(C(=O)N[C@H](c2nc(-c3ccc(-c4ccc(-c5c[nH]c([C@@H](NC(=O)C6(C)CCCCC6O)C(C)(C)C)n5)cc4)cc3)c[nH]2)C(C)(C)C)CCCCC1O` (single isomer, unassigned) [Compound Y-105], the “Fold-Synergistic 1a (Q30E)” value is more than 100 fold. For `CC1(C)CCN(C(=O)C2(N3CCC(F)(F)CC3)COC2)C1c1nc(-c2ccc(-c3ccc(-c4c[nH]c(C5N(C(=O)C6(N7CCC(F)(F)CC7)COC6)CCC5(C)C)n4)cc3)cc2)c[nH]1` (centres unmarked) [Compound W-220], the “Fold-Synergistic 1a (Q30E)” value is reported as more than 10 fold. On to `CC(C)[C@H](NC(=O)c1ccc(C(F)(F)F)cc1)c1ncc(-c2ccc(-c3ccc(-c4cnc([C@@H](NC(=O)c5ccc(C(F)(F)F)cc5)C(C)C)[nH]4)cc3)cc2)[nH]1` [Compound S-84], for which the “Fold-Synergistic 1a (Q30E)” value is reported as more than 100 fold. Turning to `CC(COCc1ccccc1)(OCCF)C(=O)N[C@H](c1nc(-c2ccc(-c3ccc(-c4c[nH]c([C@@H](NC(=O)C(C)(COCc5ccccc5)OCCF)C(C)(C)C)n4)cc3)cc2)c[nH]1)C(C)(C)C` (single isomer, unassigned) [Compound W-261b], the “Fold-Synergistic 1a (Q30E)” value is reported as more than 100 fold. Regarding `CC(C)(C)[C@H](NC(=O)C(C)(C)C1(O)CCC(F)(F)CC1)c1nc2ccc(C#Cc3ccc4nc([C@@H](NC(=O)C(C)(C)C5(O)CCC(F)(F)CC5)C(C)(C)C)[nH]c4c3)cc2[nH]1.O=C(O)C(F)(F)F` [Compound B41A], the “Fold-Synergistic 1a (Q30E)” value was more than 100 fold. `O=C(NC(c1nc(-c2ccc(-c3ccc(-c4c[nH]c(C(NC(=O)C(=O)N5CCC(F)(F)CC5)C5CC5)n4)cc3)cc2)c[nH]1)C1CC1)C(=O)N1CCC(F)(F)CC1` [Compound L-37]: the “Fold-Synergistic 1a (Q30E)” value is reported as more than 100 fold.

With `O=C(N1CCC(F)(F)CC1)C1(c2nc(-c3ccc(-c4ccc(-c5c[nH]c(C6(C(=O)N7CCC(F)(F)CC7)CCC6)n5)cc4)cc3)c[nH]2)CCC1` [Compound P-137], the “Fold-Synergistic 1a (Q30E)” value is more than 10 fold. Regarding `CC(C)[C@H](NC(=O)C1CCC(F)(F)CC1)c1ncc(-c2ccc(-c3ccc(-c4cnc([C@@H](NC(=O)C5CCC(F)(F)CC5)C(C)C)[nH]4)cc3)cc2)[nH]1` [Compound P-79], the “Fold-Synergistic 1a (Q30E)” value was more than 100 fold. `COCC(C)(COC)C(=O)NC(c1nc(-c2ccc(-c3ccc(-c4c[nH]c(C(NC(=O)C(C)(COC)COC)C(C)(C)C)n4)cc3)cc2)c[nH]1)C(C)(C)C` [Compound L-123]: the “Fold-Synergistic 1a (Q30E)” value was more than 100 fold. In the case of `CC(O)C(C)(C)C(=O)N[C@H](c1ncc(-c2ccc(-c3ccc(-c4cnc([C@@H](NC(=O)C(C)(C)C(C)O)C(C)(C)C)[nH]4)cc3)cc2)[nH]1)C(C)(C)C` (single isomer, unassigned) [Compound B76], the “Fold-Synergistic 1a (Q30E)” value was more than 100 fold.

For `CN(C)C(=N[C@H](c1ncc(-c2ccc(-c3ccc(-c4cnc([C@@H](NC(=O)C5(C6(O)CCNCC6)CCC5)C(C)(C)C)[nH]4)cc3)cc2)[nH]1)C(C)(C)C)N(C)C` [Compound B85], the “Fold-Synergistic 1a (Q30E)” value is more than 10 fold. As to `CC(O)(CF)C(=O)N[C@H](c1nc(-c2ccc(-c3ccc(-c4c[nH]c([C@@H](NC(=O)C(C)(O)CF)C(C)(C)C)n4)cc3)cc2)c[nH]1)C(C)(C)C` (single isomer, unassigned) [Compound N-139B], the “Fold-Synergistic 1a (Q30E)” value is on record as more than 100 fold. Under `[2H]C([2H])([2H])C(=O)NC1(C(=O)N[C@H](c2nc(-c3ccc(-c4ccc(-c5c[nH]c([C@@H](NC(=O)C6(NC(=O)C([2H])([2H])[2H])CCCCC6)C(C)(C)C)n5)cc4)cc3)c[nH]2)C(C)(C)C)CCCCC1` [Compound W-272] stands more than 100 fold; under `COC(=O)C1(C(=O)N[C@H](c2nc(-c3ccc(-c4ccc(-c5c[nH]c([C@@H](NC(=O)C6(C(=O)OC)CCCCC6)C(C)(C)C)n5)cc4)cc3)c[nH]2)C(C)(C)C)CCCCC1` [Compound S-273], more than 100 fold. In the case of `CC1(C)C[C@@H](C(=O)N[C@H](c2nc(-c3ccc(-c4ccc(-c5c[nH]c([C@@H](NC(=O)[C@@H]6CC(C)(C)CN6C(=O)OC(C)(C)C)C(C)(C)C)n5)cc4)cc3)c[nH]2)C(C)(C)C)N(C(=O)OC(C)(C)C)C1` [Compound W-93], the “Fold-Synergistic 1a (Q30E)” value is listed as more than 100 fold. Under `CC(C)(C)OC(=O)N1C2CCC1(C(=O)N[C@H](c1nc(-c3ccc(-c4ccc(-c5c[nH]c([C@@H](NC(=O)C67CCC(CC6)N7C(=O)OC(C)(C)C)C(C)(C)C)n5)cc4)cc3)c[nH]1)C(C)(C)C)CC2` [Compound W-85] stands more than 100 fold; under `CC(C)[C@H](NC(=O)C1CCC(F)(F)CC1)c1nc2ccc(C#CC#Cc3ccc4nc([C@@H](NC(=O)C5CCC(F)(F)CC5)C(C)C)[nH]c4c3)cc2[nH]1` [Compound B52], more than 100 fold. Regarding `CC1(C(=O)N[C@H](c2nc(-c3ccc(-c4ccc(-c5c[nH]c([C@@H](NC(=O)C6(C)CCCCC6O)C(C)(C)C)n5)cc4)cc3)c[nH]2)C(C)(C)C)CCCCC1O` (single isomer, unassigned) [Compound Y-94], the “Fold-Synergistic 1a (Q30E)” value was more than 100 fold.

With `CC(C)[C@H](NC(=O)CC(C)(C)C)c1ncc(-c2ccc(-c3ccc(-c4cnc([C@@H](NC(=O)CC(C)(C)C)C(C)C)[nH]4)cc3)cc2)[nH]1` [Compound P-56], the “Fold-Synergistic 1a (Q30E)” value is listed as more than 100 fold. As to `CN(C(=O)OCCF)C(C)(C)C(=O)N[C@H](c1nc(-c2ccc(-c3ccc(-c4c[nH]c([C@@H](NC(=O)C(C)(C)N(C)C(=O)OCCF)C(C)(C)C)n4)cc3)cc2)c[nH]1)C(C)(C)C` [Compound L-20], the “Fold-Synergistic 1a (Q30E)” value is on record as more than 100 fold.

`CC1([C@H](NC(=O)C2CCC(F)(F)CC2)c2ncc(-c3ccc(-c4ccc(-c5cnc([C@@H](NC(=O)C6CCC(F)(F)CC6)C6(C)CC6)[nH]5)cc4)cc3)[nH]2)CC1` [Compound Y-34]: the “Fold-Synergistic 1a (Q30E)” value is more than 100 fold.

Turning to `CC(C)[C@H](NC(=O)c1ccc(F)cc1Cl)c1ncc(-c2ccc(-c3ccc(-c4cnc([C@@H](NC(=O)c5ccc(F)cc5Cl)C(C)C)[nH]4)cc3)cc2)[nH]1` [Compound S-88], the “Fold-Synergistic 1a (Q30E)” value was more than 100 fold. Regarding `CC(C)[C@H](NC(=O)C(C)(C)OCC(F)F)c1nc(-c2ccc(-c3ccc(-c4c[nH]c([C@@H](NC(=O)C(C)(C)OCC(F)F)C(C)C)n4)c(F)c3)cc2)c[nH]1.O=C(O)C(F)(F)F` [Compound N-91], the “Fold-Synergistic 1a (Q30E)” value is more than 100 fold. In the case of `CC(C)[C@H](NC(=O)CCC1CCCC1)c1ncc(-c2ccc(-c3ccc(-c4cnc([C@@H](NC(=O)CCC5CCCC5)C(C)C)[nH]4)cc3)cc2)[nH]1` [Compound S-25], the “Fold-Synergistic 1a (Q30E)” value is recorded as more than 100 fold.
